{
  "source": "patent US11400056B2",
  "about": "“Pharmaceutical composition comprising gallstone solubilizer for treatment of gallbladder disease” (SurgiNex Co., Ltd., priority 2016, dated 2022)",
  "key": {"[1]": {"test": "Evaluation of gallstone dissolution, cholesterol stone", "parameters": "species or system human", "settings": "37° C., 4 hours; for Dissolution ability (%) Cholesterol stone: 0.5 g gallstone + 0.5 ml agent (1 g compound in 1 ml DMSO), (weight after dissolution)/(weight before dissolution)×100", "description": "(§1) In order to evaluate the cholesterol stone and pigmented stone dissolution abilities of each of Examples 1 to 3 and Comparative Examples 1 and 2 prepared according to the Preparation Example above, cholesterol stones and pigmented stones removed during surgery of gallstone patients were obtained, thereby preparing gallstones. 0.5 g of each of the prepared gallstones was placed in an Eppendorf tube, and then 0.5 ml of each of the gallstone-dissolving agents of Examples 1 to 3 and Comparative Examples 1 and 2 was added to the Eppendorf tube containing the gallstone. Each tube was left to stand at 37° C. for 4 hours. Thereafter, the gallstone dissolution ability of each compound was evaluated by measuring the mass of the gallstones before and after dissolving the gallstone by treatment with each compound. The results of evaluating the abilities to dissolve cholesterol stones and pigmented stones are shown in Tables 2 and 3 below, respectively, and photographs before and after dissolving the gallstones are comparatively shown in FIGS. 1 and 2, respectively.\n(§2) The gallstone dissolution ability was calculated using the following equation: Gallstone dissolution ability (%)=(weight of gallstone after dissolution)/(weight of gallstone before dissolution)×100"}, "[2]": {"test": "Evaluation of gallstone dissolution, pigmented stone", "parameters": "species or system human", "settings": "0.5 g gallstone + 0.5 ml agent (1 g compound in 1 ml DMSO), 37° C., 4 hours; (weight after dissolution)/(weight before dissolution)×100", "description": "as §1, §2"}},
  "data": [
    {"smiles": "COC(C)(C)C", "note": "[Comparative Example 1, Methyl tert-butyl ether, reference compound]", "values": [
      {"measurement": "Dissolution ability (%) Cholesterol stone", "setting": "[1]", "value": 24.07, "unit": "%"}
    ]},
    {"smiles": "CCOC(=O)CC", "note": "[Comparative Example 2, ethyl propionate, reference compound]", "values": [
      {"measurement": "Dissolution ability (%) Cholesterol stone", "setting": "[1]", "value": 48.66, "unit": "%"}
    ]},
    {"smiles": "COc1cccc(C)n1", "note": "[Example 1, 2-methoxy-6-methylpyridine]", "values": [
      {"measurement": "Dissolution ability (%) Pigmented stone", "setting": "[2]", "value": 52.92, "unit": "%"},
      {"measurement": "Dissolution ability (%) Cholesterol stone", "setting": "[1]", "value": 14.16, "unit": "%"}
    ]},
    {"smiles": "COC(=O)c1cccc(C)c1", "note": "[Example 2, methyl 3-methylbenzoate]", "values": [
      {"measurement": "Dissolution ability (%) Pigmented stone", "setting": "[2]", "value": 58.33, "unit": "%"},
      {"measurement": "Dissolution ability (%) Cholesterol stone", "setting": "[1]", "value": 10.00, "unit": "%"},
      {"measurement": "ability to dissolve the cholesterol stone (in words)", "setting": "[1]; Table 2 and FIG. 1", "value": "excellent ability to dissolve the cholesterol stone"}
    ]},
    {"smiles": "CC(=O)C1CC1", "note": "[Example 3, 1-cyclopropylethanone]", "values": [
      {"measurement": "Dissolution ability (%) Pigmented stone", "setting": "[2]", "value": 60.00, "unit": "%"},
      {"measurement": "Dissolution ability (%) Cholesterol stone", "setting": "[1]", "value": 28.57, "unit": "%"}
    ]}
  ]
}
